Test results as given in article PMC5627448, “Pharmacokinetics of carfilzomib in patients with advanced malignancies and varying degrees of hepatic impairment: an open-label, single-arm, phase 1 study” (Experimental Hematology & Oncology, 2017).

Assays:
[1] = test system: relapsed or progressive advanced malignancies; assay: Efficacy: best overall response as determined by investigator (RECIST 1.1 / IMWG-URC); type: in vivo, human; settings: for Best overall response: complete response / Best overall response: partial response / Best overall response: progressive disease / Best overall response: stable disease / Best overall response: not evaluable: response-evaluable population
Description: (§1) Blood samples were collected to measure PK and plasma concentration of carfilzomib and its major metabolites (PR-389/M14, PR-413/M15, and PR-519/M16). Samples were collected on day 16 of cycle 1 and day 1 of cycle 2 (or on subsequent infusion days when the intended dose levels were administered) before infusion; at 15 min after start of infusion; within 2 min before end of infusion; and at 5, 15, and 30 min (±2 min for each); and at 1, 2, and 4 h (±5 min for each) after end of the infusion (Fig. 1). Safety was assessed throughout the study and included the monitoring of adverse events (AEs) using National Cancer Institute-Common Terminology Criteria for Adverse Events, version 4.03 (NCI-CTCAE v4.03), clinical laboratory evaluations, and vital signs; echocardiograms and physical examinations were also performed. The exact type and frequency of disease or tumor response assessments depended upon tumor type and was assessed by the investigator using the appropriate measure for the underlying malignancy, including Response Evaluation Criteria in Solid Tumours version 1.1.
For multiple myeloma patients, efficacy was assessed on day 1 of each cycle during treatment. For solid tumor patients, efficacy was assessed on day 1 of every other cycle [i.e., on day 1 (±7 days) of cycles 3, 5, 7, 9, etc.] during treatment.
(§2) Safety was assessed for patients who received any carfilzomib dose. AEs were mapped to a preferred term and system organ class using MedDRA and were graded using the NCI-CTCAE v4.03. ORR was summarized along with 95% exact binomial CIs by cohorts.

[2] = Safety: treatment-emergent adverse events, discontinuations and deaths (NCI-CTCAE v4.03) in patients by hepatic function; type: in vivo, human
Description: as §1, §2

[3] = Plasma pharmacokinetics of carfilzomib and its major metabolites after 30-min IV infusion in patients with normal or impaired hepatic function; settings: human, in vivo
Description: This was a phase 1, multicenter, open-label, nonrandomized, comparative PK study of carfilzomib in patients with normal hepatic function or mild-to-moderate hepatic impairment. The study was conducted at 12 sites in the USA, United Kingdom, France, and the Netherlands. […] Exploratory objectives included evaluation of overall response rate (ORR) and duration of response (DOR).
Patients received carfilzomib as a 30-min IV infusion on days 1, 2, 8, 9, 15, and 16 of 28-day cycles (Fig. 1). All patients were to receive doses of 20 mg/m^2 on days 1 and 2 of cycle 1. […]
as §1, with “Samples were collected on day 16 of cycle 1 and day 1 of cycle 2 (or on subsequent infusion days when the intended dose levels were administered) before infusion; at 15 min after start of infusion; within 2 min before end of infusion; and at 5, 15, and 30 min (±2 min for each); and at 1, 2, and 4 h (±5 min for each) after end of the infusion (Fig. 1).” left out, “1.1. […]” for “1.1.”

[4] = cited from earlier work
Source text: Carfilzomib is an irreversible, proteasome inhibitor approved in the United States of America (USA) and Europe for the treatment of relapsed or refractory multiple myeloma in combination with lenalidomide + dexamethasone or with dexamethasone alone. […] In the normal hepatic function cohort, one outlier contributed to the extremely high variability. […] [6].

[5] = normal hepatic function, n = 10
[6] = normal hepatic function, n = 11
[7] = IV administration, patients with solid tumors

Compound: CC(C)C[C@H](NC(=O)[C@H](CCc1ccccc1)NC(=O)CN1CCOCC1)C(=O)N[C@@H](Cc1ccccc1)C(=O)N[C@@H](CC(C)C)C(=O)[C@@]1(C)CO1 [carfilzomib]
- Best overall response: complete response ([1]; mild impairment, n = 15): 0 (0.0) n (%)
- Best overall response: partial response ([1]; mild impairment, n = 15): 0 (0.0) n (%)
- Best overall response: progressive disease ([1]; mild impairment, n = 15): 12 (80.0) n (%)
- Best overall response: stable disease ([1]; mild impairment, n = 15): 1 (6.7) n (%)
- Best overall response: complete response ([1]; moderate impairment, n = 9): 0 (0.0) n (%)
- Best overall response: not evaluable ([1]; moderate impairment, n = 9): 3 (33.3) n (%)
- Best overall response: partial response ([1]; moderate impairment, n = 9): 0 (0.0) n (%)
- Best overall response: progressive disease ([1]; moderate impairment, n = 9): 4 (44.4) n (%)
- Best overall response: stable disease ([1]; moderate impairment, n = 9): 2 (22.2) n (%)
- Best overall response: complete response [1, 5]: 0 (0.0) n (%)
- Best overall response: not evaluable [1, 5]: 0 (0.0) n (%)
- Best overall response: partial response [1, 5]: 1 (10.0) n (%)
- Best overall response: progressive disease [1, 5]: 5 (50.0) n (%)
- Best overall response: stable disease [1, 5]: 4 (40.0) n (%)
- DOR of partial response ([1]; one multiple myeloma patient with normal hepatic function): ≥ 3 months
- ORR ([1]; overall study population, n = 34, 95% CI 0.1–15.3%): 2.9%
- Best overall response: complete response ([1]; total, n = 34): 0 (0.0) n (%)
- Best overall response: not evaluable ([1]; total, n = 34): 5 (14.7) n (%)
- Best overall response: partial response ([1]; total, n = 34): 1 (2.9) n (%)
- Best overall response: progressive disease ([1]; total, n = 34): 21 (61.8) n (%)
- Best overall response: stable disease ([1]; total, n = 34): 7 (20.6) n (%)
- Deaths considered related to treatment ([2]; both in mild hepatic impairment group: gastrointestinal hemorrhage and acute respiratory distress syndrome): Two
- AE resulting in treatment discontinuation: increased blood bilirubin ([2]; human, in vivo): 2 patients
- AE resulting in treatment discontinuation: pneumonitis ([2]; human, in vivo): one
- Grade ≥3 AEs considered related to treatment, patients ([2]; human, in vivo): 33%
- Grade ≥3 AEs, patients ([2]; human, in vivo): 76%
- Serious AE: acute kidney injury ([2]; human, in vivo): three
- Serious AE: anemia ([2]; human, in vivo): two
- Serious AE: ascites ([2]; human, in vivo): three
- Serious AE: hepatic encephalopathy ([2]; human, in vivo): two
- Serious AE: increased blood bilirubin ([2]; human, in vivo): two
- Serious AE: lower respiratory tract infection ([2]; human, in vivo): two
- Serious AE: pneumonia ([2]; human, in vivo): two
- Serious AE: sepsis ([2]; human, in vivo): three
- Treatment-emergent AEs, patients ([2]; human, in vivo): 98%
- Treatment discontinuation due to death ([2]; mild impairment, n = 17): 2 n
- Treatment discontinuation due to disease progression ([2]; mild impairment, n = 17): 13 n
- Treatment discontinuation due to death ([2]; moderate impairment, n = 14): 1 n
- Treatment discontinuation due to disease progression ([2]; moderate impairment, n = 14): 7 n
- Treatment discontinuation due to death [2, 6]: 1 n
- Treatment discontinuation due to disease progression [2, 6]: 7 n
- Deaths within 30 days after the last dose ([2]; safety population): Nine
- Treatment discontinuation due to death ([2]; severe impairment, n = 4): 2 n
- Treatment discontinuation due to disease progression ([2]; severe impairment, n = 4): 2 n
- Treatment discontinuation due to death ([2]; total, N = 46): 6 n
- Treatment discontinuation due to disease progression ([2]; total, N = 46): 29 n
- Deaths among severe hepatic impairment patients ([2]; two progressive disease, two fatal AEs unrelated to treatment): four
- Higher carfilzomib AUC vs. normal hepatic function patients [3]: 20–50%
- Mean T1/2 [3]: 30 to 42 min
- Cmax, historical data ([4]; 56 mg/m^2, geometric mean (geometric CV%)): 2079 (44%) ng/mL
- Estimated clearance [4, 7]: high and exceeds hepatic blood flow
- Time within which most of the drug is eliminated from the plasma compartment [4, 7]: ≤ 30 min
- Difference in PK parameters, mild hepatic impairment vs normal hepatic function ([4]; population PK analysis, mild N = 143, normal N = 474): no statistically significant differences
